# Key:
# AML cell lines (OCIAML5) = assay: Cancer cell line growth inhibition (Cell-titer glo, GI50, day 3 and day 7), compound 17; type: cell-based; details: compound 17, 0 to 10 micromolar
# [1] = test system: AML cell lines (OCIAML5, KASUMI1); assay: Cancer cell line growth inhibition (Cell-titer glo, GI50, day 3 and day 7), compound 18; type: cell-based; details: compound 18, 0 to 10 micromolar
# Protocol: Procedure: Uveal melanoma cell lines (92-1, MP41, MP38, MP46), prostate cancer cell lines (LNCAP), lung cancer cell lines (NCIH1299), and immortalized embryonic kidney lines (HEK293T) were plated into 96 well plates with growth media (see Table 1). […] Cells were incubated at 37° C. for 3 days. After 3 days of treatment, the media was removed from the cells, and 30 microliters of TrypLE (Gibco) was added to cells for 10 minutes. Cells were detached from the plates and resuspended with the addition of 170 microliters of growth media. Cells from two DMSO-treated control wells were counted, and the initial number of cells plated at the start of the experiment, were re-plated into fresh-compound containing plates for an additional four days at 37° C. At day 7, cells were harvested as described above.
# On day 3 and day 7, relative cell growth was measured by the addition of Cell-titer glo (Promega), and luminescence was measured on an Envision plate reader (Perkin Elmer).
# At the time of cell splitting on days 3 and 7, cells were split into new 96 well plates, and fresh compound was added four hours after re-plating.
# Procedure: All cell lines described above in Example 2 were also tested as described above with compound 18. In addition, the following cell lines were also tested as follows. […]
# [2] = test system: MV4;11 human AML tumor cells; assay: Subcutaneous MV4;11 tumor growth in vivo; design: species or system BALB/c Nude mice; details: 50 mg/kg daily for 21 days, oral route
# Protocol: (§1) Method: BALB/c Nude mice (Beijing Anikeeper Biotech, Beijing) were inoculated subcutaneously on the right flank with the single cell suspension of EOL-1 or MV4;11 human AML tumor cells (1×10^7) in 100 μL IDMD in 10% Fetal Bovine Serum (FBS). When tumor size reach ˜100 mm3, the mice were randomized into either Vehicle group [20% HP-β-CD) or Treatment group: Compound 19 at 50 mg/kg daily for 21 days per oral route. All dose volumes were adjusted by body weights in terms of mg/kg.
# [3] = test system: EOL-1 human AML tumor cells; assay: Subcutaneous EOL-1 tumor growth in vivo; design: species or system BALB/c Nude mice; details: 50 mg/kg daily for 21 days, oral route
# Protocol: as §1
# [4] = Tolerability by % body weight change in EOL-1 or MV4;11 tumor-bearing mice; type: in vivo; details: 50 mg/kg daily for 21 days, oral route; MV4;11 and EOL-1 models
# Protocol: as §1
# [5] = Tolerability by % body weight change in OCI-AML2 tumor-bearing mice; type: in vivo; details: 1.5 mg/kg daily for 21 days, oral route
# Protocol: (§2) Method: SCID mice (Charles River, Wilmington) were inoculated subcutaneously on the right flank with the single cell suspension of OCI-AML2 human AML tumor cells (1×10^7) in 100 μL in RPMI-1640 media. When tumor size reach ˜100 mm^3, the mice were randomized into either Vehicle group (20% HP-β-CD) or Treatment group (Compound 20 at 1.5 mg/kg daily for 21 days per oral route). All dose volumes were adjusted by body weights in terms of mg/kg.
# [6] = test system: OCI-AML2 human AML tumor cells; assay: Subcutaneous OCI-AML2 tumor growth in vivo; design: species or system SCID mice; details: 1.5 mg/kg daily for 21 days, oral route; tumor carries a DNMT3A mutation
# Protocol: as §2
compound,measurement,setting,value
"CSCC[C@H](NC(=O)c1ccc(N)cc1)C(=O)Nc1nc(-c2cccc(-c3ccncc3)c2)cs1 [Compound 17, 4-amino-N-[(1S)-3-methylsulfanyl-1-[[4-[3-(4-pyridyl)phenyl]thiazol-2-yl]carbamoyl]propyl]benzamide]",Duration of inhibition of the AML cell lines (FIG. 1),AML cell lines (OCIAML5),maintained through day 7
"CSCC[C@H](NC(=O)c1ccn(S(C)(=O)=O)c1)C(=O)Nc1nc(-c2cccc(-c3ccncc3)c2)cs1 [Compound 18, (S)-1-(methylsulfonyl)-N-(4-(methylthio)-1-oxo-1-((4-(3-(pyridin-4-yl)phenyl)thiazol-2-yl)amino)butan-2-yl)-1H-pyrrole-3-carboxamide]",Duration of inhibition of the AML cell lines (FIG. 2),[1],maintained through day 7
same,"Sensitivity of the AML cell lines relative to the other tested cell lines (GI50, FIG. 2)",[1]; day 3 and day 7,more sensitive to BRG1/BRM inhibition than the other tested cell lines
"C[C@@H]1CN(c2cccc(-c3csc(NC(=O)CNC(=O)c4ccn(C(C)(C)C)c4)n3)n2)C[C@H](C)O1 [Compound 19, 1-(tert-butyl)-N-(2-((4-(6-(cis-2,6-dimethylmorpholino)pyridin-2-yl)thiazol-2-yl)amino)-2-oxoethyl)-1H-pyrrole-3-carboxamide]",Effect on MV4;11 tumor growth (FIG. 4),[2],tumor stasis
same,Effect on EOL-1 tumor growth (FIG. 5),[3],delayed the growth
same,Tolerability based on % body weight change,[4],well tolerated
"COC[C@H](NC(=O)c1ccn(S(C)(=O)=O)c1)C(=O)Nc1nc(-c2cccc(N3C[C@@H](C)O[C@@H](C)C3)n2)cs1 [Compound 20, N—((S)-1-((4-(6-(cis-2,6-dimethylmorpholino)pyridin-2-yl)thiazol-2-yl)amino)-3-methoxy-1-oxopropan-2-yl)-1-(methylsulfonyl)-1H-pyrrole-3-carboxamide]",Tolerability based on % body weight change,[5],well tolerated
same,Effect on OCI-AML2 tumor growth (FIG. 6),[6],inhibited the growth

# Source: patent US12383555B2, “Methods of treating cancers” (Foghorn Therapeutics Inc., priority 2020, dated 2025)
